Active and inactive are the calls of the source. No cut-off for these calls is given here.
Experiments:
[1] = Metabolic stability in rat liver microsomes assessed as compound metabolized at 5 uM after 15 mins by MS/MS analysis in presence of NADPH; type: ADME; details: read-out: Drug metabolism
[2] = molecular target: T1, Metabotropic glutamate receptor 2 (Homo sapiens, UniProt Q14416); assay: Positive allosteric modulation of human mGlu2 receptor expressed in CHO cells assessed as potentiation of glutamate-induced effect incubated for 30 mins prior to [35S]GTPgamma addition measured after 30 mins relative to glutamate; type: functional, cell-based
Target sequence in this assay (Q14416 19-872 limits assumed): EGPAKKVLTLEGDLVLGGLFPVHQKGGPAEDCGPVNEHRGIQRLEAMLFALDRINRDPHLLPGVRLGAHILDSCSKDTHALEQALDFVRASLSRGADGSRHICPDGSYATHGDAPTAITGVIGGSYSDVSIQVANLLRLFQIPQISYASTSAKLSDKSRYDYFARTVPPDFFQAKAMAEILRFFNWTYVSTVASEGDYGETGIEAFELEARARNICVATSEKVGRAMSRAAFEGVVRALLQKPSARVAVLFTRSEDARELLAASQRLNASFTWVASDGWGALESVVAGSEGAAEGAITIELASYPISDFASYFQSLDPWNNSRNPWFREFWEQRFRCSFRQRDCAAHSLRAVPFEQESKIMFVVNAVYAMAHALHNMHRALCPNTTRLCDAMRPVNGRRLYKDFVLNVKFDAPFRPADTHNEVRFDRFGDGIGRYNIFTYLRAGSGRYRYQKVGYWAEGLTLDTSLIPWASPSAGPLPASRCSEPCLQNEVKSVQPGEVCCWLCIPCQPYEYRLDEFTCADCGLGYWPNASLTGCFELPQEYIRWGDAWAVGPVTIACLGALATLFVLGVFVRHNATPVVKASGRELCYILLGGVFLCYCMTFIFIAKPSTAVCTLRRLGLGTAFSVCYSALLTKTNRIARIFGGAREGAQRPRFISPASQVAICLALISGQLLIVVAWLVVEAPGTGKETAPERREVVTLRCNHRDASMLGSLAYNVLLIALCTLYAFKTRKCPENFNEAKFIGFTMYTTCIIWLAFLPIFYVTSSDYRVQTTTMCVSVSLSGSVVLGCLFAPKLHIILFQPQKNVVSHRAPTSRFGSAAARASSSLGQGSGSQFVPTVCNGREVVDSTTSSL

[3] = Metabolic stability in human liver microsomes assessed as compound metabolized at 5 uM after 15 mins by MS/MS analysis in presence of NADPH; type: ADME; details: read-out: Drug metabolism
[4] = molecular target: T1, Metabotropic glutamate receptor 2; assay: Positive allosteric modulation of human mGlu2 receptor expressed in CHO cells assessed as potentiation of glutamate-induced effect incubated for 30 mins prior to [35S]GTPgamma addition measured after 30 mins; type: functional, cell-based
Target sequence in this assay (Q14416 whole entry): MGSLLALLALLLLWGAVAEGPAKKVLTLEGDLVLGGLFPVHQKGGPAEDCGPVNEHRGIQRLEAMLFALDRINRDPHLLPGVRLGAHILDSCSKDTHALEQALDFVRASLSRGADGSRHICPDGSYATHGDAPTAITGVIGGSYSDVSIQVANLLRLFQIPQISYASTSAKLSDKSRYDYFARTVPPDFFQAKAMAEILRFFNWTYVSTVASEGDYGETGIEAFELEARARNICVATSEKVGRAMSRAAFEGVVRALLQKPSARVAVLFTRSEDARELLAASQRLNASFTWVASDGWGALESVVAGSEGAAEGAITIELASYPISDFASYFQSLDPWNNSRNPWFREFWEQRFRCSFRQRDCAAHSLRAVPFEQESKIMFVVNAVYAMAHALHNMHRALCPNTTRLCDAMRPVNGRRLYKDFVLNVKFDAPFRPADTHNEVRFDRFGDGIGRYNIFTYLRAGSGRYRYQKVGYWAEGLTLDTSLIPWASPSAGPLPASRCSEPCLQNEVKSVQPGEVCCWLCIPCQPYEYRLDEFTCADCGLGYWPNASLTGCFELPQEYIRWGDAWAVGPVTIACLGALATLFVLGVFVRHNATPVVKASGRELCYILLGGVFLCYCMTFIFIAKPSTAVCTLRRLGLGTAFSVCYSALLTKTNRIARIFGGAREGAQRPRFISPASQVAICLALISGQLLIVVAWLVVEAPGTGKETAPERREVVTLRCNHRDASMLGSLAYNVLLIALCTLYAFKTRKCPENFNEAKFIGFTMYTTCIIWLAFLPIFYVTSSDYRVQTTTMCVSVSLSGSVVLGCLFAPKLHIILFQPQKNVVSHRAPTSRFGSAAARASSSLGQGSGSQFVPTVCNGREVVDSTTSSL

hERG (KCNH2) = hERG (KCNH2) (Homo sapiens, UniProt Q12809); assay: Inhibition of human ERG channel transfected in HEK293 cells at 3 uM by patch clamp technique; type: cell-based; details: HEK293 cells transfected with human ERG channel
Rattus norvegicus [5] = assay: Positive allosteric modulation of mGlu2 receptor in po dosed Sprague-Dawley rat assessed effect on sleep-wake EEG paradigm after 20 hrs by electroencephalogram analysis; type: functional
Rattus norvegicus [6] = assay: Positive allosteric modulation of mGlu2 receptor in Sprague-Dawley rat sleep-wake EEG paradigm model assessed as effect on light sleep stage at 3 mg/kg, po after 4 hrs by electroencephalogram analysis; type: functional, organism-based; set-up: dose 3 mg/kg
[7] = Ratio of drug level in brain to plasma in Swiss mouse at 10 mg/kg, sc after 1 hr; type: ADME, organism-based; set-up: dose 10 mg/kg, route subcutaneous; details: brain and plasma, read-out: BPR
Rattus norvegicus [8] = assay: Positive allosteric modulation of mGlu2 receptor in Sprague-Dawley rat sleep-wake EEG paradigm model assessed as effect on intermediate state at 3 mg/kg, po after 4 hrs by electroencephalogram analysis; type: functional, organism-based; set-up: dose 3 mg/kg
[9] = Clearance in Sprague-Dawley rat at 2.5 mg/kg, iv; type: ADME, organism-based; set-up: dose 2.5 mg/kg, route intravenous; details: in vivo
[10] = Oral bioavailability in Sprague-Dawley rat at 10 mg/kg; type: ADME, organism-based; details: in vivo
Rattus norvegicus [11] = assay: Positive allosteric modulation of mGlu2 receptor in Sprague-Dawley rat sleep-wake EEG paradigm model assessed as effect on passive wake stage at 3 mg/kg, po after 4 hrs by electroencephalogram analysis; type: functional, organism-based; set-up: dose 3 mg/kg
[12] = Elimination half life in Sprague-Dawley rat at 2.5 mg/kg, iv; type: ADME, organism-based; set-up: dose 2.5 mg/kg, route intravenous; details: in vivo, read-out: beta t1/2 (converted)
[13] = AUC (0 to infinity) in Sprague-Dawley rat at 10 mg/kg, po; type: ADME, organism-based; set-up: time infinity, dose 10 mg/kg, route oral; details: plasma
Rattus norvegicus [14] = assay: Positive allosteric modulation of mGlu2 receptor in Sprague-Dawley rat sleep-wake EEG paradigm model assessed as effect on active wake stage at 3 mg/kg, po after 4 hrs by electroencephalogram analysis; type: functional, organism-based; set-up: dose 3 mg/kg
Rattus norvegicus [15] = assay: Positive allosteric modulation of mGlu2 receptor in Sprague-Dawley rat sleep-wake EEG paradigm model assessed as effect on deep sleep stage at 3 mg/kg, po after 4 hrs by electroencephalogram analysis; type: functional, organism-based; set-up: dose 3 mg/kg
[16] = Tmax in Sprague-Dawley rat at 2.5 mg/kg, iv; type: ADME, organism-based; set-up: dose 2.5 mg/kg, route intravenous; details: in vivo
Rattus norvegicus [17] = assay: Positive allosteric modulation of mGlu2 receptor in Sprague-Dawley rat sleep-wake EEG paradigm model assessed as reduction in REM sleep at 3 mg/kg, po after 4 hrs by electroencephalogram analysis; type: functional, organism-based; set-up: dose 3 mg/kg
[18] = Cmax in Sprague-Dawley rat at 10 mg/kg, po; type: ADME, organism-based; set-up: dose 10 mg/kg, route oral; details: in vivo

Sequence of hERG (KCNH2) (Q12809 whole entry): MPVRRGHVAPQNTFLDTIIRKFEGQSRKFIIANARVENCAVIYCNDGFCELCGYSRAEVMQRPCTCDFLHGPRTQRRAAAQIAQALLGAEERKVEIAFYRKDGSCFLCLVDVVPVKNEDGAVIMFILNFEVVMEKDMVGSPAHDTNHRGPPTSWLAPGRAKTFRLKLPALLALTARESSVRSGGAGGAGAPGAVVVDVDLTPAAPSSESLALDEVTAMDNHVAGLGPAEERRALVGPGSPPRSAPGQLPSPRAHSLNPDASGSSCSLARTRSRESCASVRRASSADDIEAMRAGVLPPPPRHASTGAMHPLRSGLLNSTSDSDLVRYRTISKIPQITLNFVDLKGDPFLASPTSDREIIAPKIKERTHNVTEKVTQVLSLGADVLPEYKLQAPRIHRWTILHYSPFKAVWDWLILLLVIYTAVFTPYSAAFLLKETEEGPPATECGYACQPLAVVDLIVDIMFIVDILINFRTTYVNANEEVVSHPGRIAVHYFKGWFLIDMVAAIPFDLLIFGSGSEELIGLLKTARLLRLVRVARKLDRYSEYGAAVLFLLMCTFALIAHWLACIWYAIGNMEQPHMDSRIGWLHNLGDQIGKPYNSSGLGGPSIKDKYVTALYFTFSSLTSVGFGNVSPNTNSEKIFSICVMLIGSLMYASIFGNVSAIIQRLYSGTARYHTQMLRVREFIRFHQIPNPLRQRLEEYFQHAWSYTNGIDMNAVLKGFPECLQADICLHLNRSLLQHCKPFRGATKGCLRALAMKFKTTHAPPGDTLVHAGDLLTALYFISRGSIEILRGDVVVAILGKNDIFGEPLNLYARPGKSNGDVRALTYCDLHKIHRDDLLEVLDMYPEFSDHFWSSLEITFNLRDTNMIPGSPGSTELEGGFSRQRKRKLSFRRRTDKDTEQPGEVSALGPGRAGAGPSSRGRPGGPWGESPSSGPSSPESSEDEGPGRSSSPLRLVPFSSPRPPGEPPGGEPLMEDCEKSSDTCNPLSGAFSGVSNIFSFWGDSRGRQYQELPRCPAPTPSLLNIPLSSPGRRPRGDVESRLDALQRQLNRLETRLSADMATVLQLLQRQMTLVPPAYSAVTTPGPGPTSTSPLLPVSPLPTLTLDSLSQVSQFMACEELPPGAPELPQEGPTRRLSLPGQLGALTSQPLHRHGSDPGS

## CC(C)CCn1ccc(N2CCCC(c3ccccc3)C2)c(C#N)c1=O (stereo unspecified)
[1]
  metabolised at 0.25 h, 5 µM: 98%
[2]
  Emax: 231%
[3]
  metabolised at 0.25 h, 5 µM: 80%
[4]
  EC50: 3.31 µM

## CCCCn1ccc(N2CCC(c3ccccc3)CC2)c(C#N)c1=O
[1]
  metabolised at 0.25 h, 5 µM: 62%
[2]
  Emax: 309%
[3]
  metabolised at 0.25 h, 5 µM: 30%
[4]
  EC50: 0.095 µM

## CC(C)CCn1ccc(N2CCN(Cc3ccccc3)CC2)c(C#N)c1=O
[1]
  metabolised at 0.25 h, 5 µM: 85%
[2]
  Emax: 304%
[3]
  metabolised at 0.25 h, 5 µM: 38%
[4]
  EC50: 4.68 µM

## N#Cc1c(N2CCC(c3ccccc3F)CC2)ccn(CC2CC2)c1=O
[1]
  metabolised at 0.25 h, 5 µM: 42%
[2]
  Emax: 282%
hERG (KCNH2)
  inhibition at 3 µM: 75%
[3]
  metabolised at 0.25 h, 5 µM: 30%
[4]
  EC50: 0.081 µM

## CC(C)CCn1ccc(N2CCCCC2)c(C#N)c1=O
[1]
  metabolised at 0.25 h, 5 µM: 100%
[2]
  Emax: 185%
[3]
  metabolised at 0.25 h, 5 µM: 67%
[4]
  EC50: 31.6 µM

## CC(C)CCn1ccc(-c2ccccc2)c(C#N)c1=O
[1]
  metabolised at 0.25 h, 5 µM: 100%
[2]
  Emax: 135%
[3]
  metabolised at 0.25 h, 5 µM: 36%

## N#Cc1c(N2CCC(c3ccc(F)cc3F)CC2)ccn(CC2CC2)c1=O
[1]
  metabolised at 0.25 h, 5 µM: 34%
[2]
  Emax: 272%
[3]
  metabolised at 0.25 h, 5 µM: 17%
[4]
  EC50: 0.068 µM

## N#Cc1c(N2CCC(c3ccccc3)CC2)ccn(CC2CCC2)c1=O
[1]
  metabolised at 0.25 h, 5 µM: 86%
[2]
  Emax: 269%
[3]
  metabolised at 0.25 h, 5 µM: 46%
[4]
  EC50: 0.055 µM

## N#Cc1c(N2CCC(c3ccccc3Cl)CC2)ccn(CC2CC2)c1=O
[1]
  metabolised at 0.25 h, 5 µM: 34%
[2]
  Emax: 259%
[3]
  metabolised at 0.25 h, 5 µM: 22%
[4]
  EC50: 0.049 µM

## CC(C)CCn1ccc(CCc2ccccc2)c(C#N)c1=O
[1]
  metabolised at 0.25 h, 5 µM: 99%
[2]
  Emax: 168%
[3]
  metabolised at 0.25 h, 5 µM: 91%
[4]
  EC50: 0.361 µM

## N#Cc1c(N2CCC(c3c(F)cccc3F)CC2)ccn(CC2CC2)c1=O
[1]
  metabolised at 0.25 h, 5 µM: 42%
[2]
  Emax: 291%
hERG (KCNH2)
  inhibition at 3 µM: 86%
[3]
  metabolised at 0.25 h, 5 µM: 18%
[4]
  EC50: 0.031 µM

## O=c1c(C(F)(F)F)c(N2CCC(c3ccccc3)CC2)ccn1CC1CC1
[1]
  metabolised at 0.25 h, 5 µM: 89%
[2]
  Emax: 239%
[3]
  metabolised at 0.25 h, 5 µM: 33%

## N#Cc1c(N2CCC(c3cc(F)cc(F)c3)CC2)ccn(CC2CC2)c1=O
[1]
  metabolised at 0.25 h, 5 µM: 45%
[2]
  Emax: 234%
hERG (KCNH2)
  inhibition at 3 µM: 95%
[3]
  metabolised at 0.25 h, 5 µM: 30%
[4]
  EC50: 0.151 µM

## CC(C)Cn1ccc(N2CCC(c3ccccc3)CC2)c(C#N)c1=O
[1]
  metabolised at 0.25 h, 5 µM: 47%
[2]
  Emax: 316%
[3]
  metabolised at 0.25 h, 5 µM: 37%
[4]
  EC50: 0.282 µM

## COc1ccccc1C1CCN(c2ccn(CC3CC3)c(=O)c2C#N)CC1
[1]
  metabolised at 0.25 h, 5 µM: 68%
[2]
  Emax: 265%
hERG (KCNH2)
  inhibition at 3 µM: 65%
[3]
  metabolised at 0.25 h, 5 µM: 53%
[4]
  EC50: 0.035 µM

## CC(C)CCn1ccc(OCc2ccccc2)c(C#N)c1=O
[1]
  metabolised at 0.25 h, 5 µM: 90%
[2]
  Emax: 173%
[3]
  metabolised at 0.25 h, 5 µM: 22%
[4]
  EC50: 2.95 µM

## CC(C)Cn1ccc(N2CCC(c3ccccc3)CC2)c(Cl)c1=O
[1]
  metabolised at 0.25 h, 5 µM: 31%
Rattus norvegicus [5]
  MEC: 407 ng/mL
Rattus norvegicus [5]; Rattus norvegicus, Sprague-Dawley, po, 20 h, read-out: MED
  minimal effective dose: 3 mg/kg
[2]
  Emax: 260%
Rattus norvegicus [6]
  Activity: inactive
[7]
  Kp at 1 h: 0.8
hERG (KCNH2)
  inhibition at 3 µM: 24%
Rattus norvegicus [8]
  Activity: inactive
[9]
  clearance: 0.78 L/h/kg
[10]
  bioavailability: 25%
Rattus norvegicus [11]
  Activity: inactive
[12]
  half-life: 2.6 h
[3]
  metabolised at 0.25 h, 5 µM: 12%
[13]
  AUC(0-inf): 3.46 µg·h/mL
Rattus norvegicus [14]
  Activity: inactive
Rattus norvegicus [15]
  Activity: inactive
[16]
  Tmax: 0.7 h
Rattus norvegicus [17]
  Activity: Active
[18]
  Cmax: 1.36 µg/mL

## N#Cc1c(N2CCC(c3ccccc3)CC2)ccn(CCCC(F)(F)F)c1=O
[1]
  metabolised at 0.25 h, 5 µM: 43%
[2]
  Emax: 302%
[3]
  metabolised at 0.25 h, 5 µM: 18%
[4]
  EC50: 0.355 µM

## N#Cc1c(N2CCC(c3cccc(F)c3)CC2)ccn(CC2CC2)c1=O
[1]
  metabolised at 0.25 h, 5 µM: 37%
[2]
  Emax: 268%
hERG (KCNH2)
  inhibition at 3 µM: 87%
[3]
  metabolised at 0.25 h, 5 µM: 35%
[4]
  EC50: 0.141 µM

## CC(C)CCn1ccc(N2CCC(c3ccccc3)CC2)c(C#N)c1=O
[1]
  metabolised at 0.25 h, 5 µM: 97%
[2]
  Emax: 268%
[3]
  metabolised at 0.25 h, 5 µM: 28%
[4]
  EC50: 0.102 µM

## N#Cc1c(N2CCC(c3ccc(Cl)cc3)CC2)ccn(CC2CC2)c1=O
[1]
  metabolised at 0.25 h, 5 µM: 21%
[2]
  Emax: 249%
[3]
  metabolised at 0.25 h, 5 µM: 28%
[4]
  EC50: 0.048 µM

## CC(C)CCn1ccc(N2CCc3ccccc3C2)c(C#N)c1=O
[1]
  metabolised at 0.25 h, 5 µM: 100%
[2]
  Emax: 310%
[3]
  metabolised at 0.25 h, 5 µM: 74%
[4]
  EC50: 0.871 µM

## CC(C)CCn1ccc(N2CCN(c3ccccc3)CC2)c(C#N)c1=O
[1]
  metabolised at 0.25 h, 5 µM: 90%
[2]
  Emax: 118%
[3]
  metabolised at 0.25 h, 5 µM: 50%
[4]
  EC50: 0.661 µM

## N#Cc1c(N2CCC(c3ccc(F)cc3)CC2)ccn(CC2CC2)c1=O
[1]
  metabolised at 0.25 h, 5 µM: 36%
[2]
  Emax: 258%
hERG (KCNH2)
  inhibition at 3 µM: 89%
[3]
  metabolised at 0.25 h, 5 µM: 31%
[4]
  EC50: 0.089 µM

## COc1ccc(C2CCN(c3ccn(CC4CC4)c(=O)c3C#N)CC2)cc1
[1]
  metabolised at 0.25 h, 5 µM: 57%
[2]
  Emax: 257%
[3]
  metabolised at 0.25 h, 5 µM: 76%
[4]
  EC50: 0.098 µM

## CC(C)CCn1ccc(N(C)Cc2ccccc2)c(C#N)c1=O
[1]
  metabolised at 0.25 h, 5 µM: 100%
[2]
  Emax: 249%
[3]
  metabolised at 0.25 h, 5 µM: 69%
[4]
  EC50: 10.7 µM

## N#Cc1c(N2CCC(c3cccc(C(F)(F)F)c3)CC2)ccn(CC2CC2)c1=O
[1]
  metabolised at 0.25 h, 5 µM: 39%
[2]
  Emax: 191%
hERG (KCNH2)
  inhibition at 3 µM: 97%
[3]
  metabolised at 0.25 h, 5 µM: 35%
[4]
  EC50: 0.046 µM

## CC(C)CCn1ccc(N2CCN(c3ccccn3)CC2)c(C#N)c1=O
[1]
  metabolised at 0.25 h, 5 µM: 54%
[2]
  Emax: 304%
[3]
  metabolised at 0.25 h, 5 µM: 51%
[4]
  EC50: 3.09 µM

## N#Cc1c(N2CCC(c3ccccc3)CC2)ccn(CCC2CC2)c1=O
[1]
  metabolised at 0.25 h, 5 µM: 61%
[2]
  Emax: 316%
[3]
  metabolised at 0.25 h, 5 µM: 50%
[4]
  EC50: 0.178 µM
